Data on 13 compounds can be found in ChEMBL document CHEMBL5257119, “New insight into the bioactivity of substituted benzimidazole derivatives: Repurposing from anti-HIV activity to cell migration inhibition targeting hnRNP M” (Bioorg Med Chem, 2023).

Molecules are shown by their SMILES. Active and inactive are the calls of the source. No cut-off for these calls is given here.

Experiment [1] concerns A549. As to the kind of experiment: Cytotoxicity against human A549 cells assessed as reduction in cell growth at 20 uM measured for 2 days by MTT assay. Type of experiment: functional, cell-based. The conditions noted are these: time 2.0 day. A general note: Tetrazolium dyes change colour on reduction, which living cells bring about.
Experiment [2] relates to A549. As to the kind of experiment: Downregulation of E-cadherin mRNA expression in human A549 cells at 20 uM measured for 1 day bt RT-qPCR analysis. Type of experiment: functional, cell-based. In general terms: In qPCR the cycle at which signal appears reflects the starting amount.
Experiment [3] deals with A549. As to the kind of experiment: Downregulation of Zeb 1 mRNA expression in human A549 cells at 20 uM measured for 1 day bt RT-qPCR analysis. Type of experiment: functional, cell-based.
For experiment [4], the system named is A549. As to the kind of experiment: Downregulation of CD44 mRNA expression in human A549 cells at 20 uM measured for 1 day bt RT-qPCR analysis. In kind it is functional, cell-based.
Experiment [5] has as its system A549. As to the kind of experiment: Antimigratory activity against TGFbeta-stimulated human A549 cells assessed as inhibition of cell migration at 20 uM measured for 1 day by cell scratch assay. In kind it is functional, cell-based.
The target of experiment [6] is T1, Heterogeneous nuclear ribonucleoprotein M (Homo sapiens) (UniProt P52272).
T1 sequence (whole entry): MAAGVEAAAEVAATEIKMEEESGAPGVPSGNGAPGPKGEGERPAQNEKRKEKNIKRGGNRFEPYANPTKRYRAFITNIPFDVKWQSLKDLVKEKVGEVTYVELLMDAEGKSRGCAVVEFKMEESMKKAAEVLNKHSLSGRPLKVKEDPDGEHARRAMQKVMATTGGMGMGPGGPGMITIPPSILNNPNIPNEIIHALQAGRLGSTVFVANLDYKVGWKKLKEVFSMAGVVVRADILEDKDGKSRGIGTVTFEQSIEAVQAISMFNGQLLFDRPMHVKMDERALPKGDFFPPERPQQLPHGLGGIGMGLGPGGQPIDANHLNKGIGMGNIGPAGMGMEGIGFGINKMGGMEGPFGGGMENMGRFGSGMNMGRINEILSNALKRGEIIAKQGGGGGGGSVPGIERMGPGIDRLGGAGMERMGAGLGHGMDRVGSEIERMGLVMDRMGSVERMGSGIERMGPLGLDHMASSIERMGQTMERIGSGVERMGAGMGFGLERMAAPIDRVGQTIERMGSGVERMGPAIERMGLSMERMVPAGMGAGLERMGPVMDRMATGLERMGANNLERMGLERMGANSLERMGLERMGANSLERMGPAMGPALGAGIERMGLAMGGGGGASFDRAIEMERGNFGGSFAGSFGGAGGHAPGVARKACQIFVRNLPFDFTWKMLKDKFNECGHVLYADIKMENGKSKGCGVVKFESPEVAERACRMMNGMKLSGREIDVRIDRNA
As to the kind of experiment: Competitive inhibition of hnRNP M to in human A549 cells at 50 uM by immunoblotting analysis. In kind it is cell-based. A general note: A western blot detects proteins with antibodies after separation by electrophoresis.

Experiment [7] concerns A549. As to the kind of experiment: Antimigratory activity against TGFbeta-stimulated human A549 cells assessed as inhibition of cell migration at 10 uM measured for 1 day by cell scratch assay. In kind it is functional, cell-based.
Experiment [8] concerns A549. As to the kind of experiment: Downregulation of Vimentin mRNA expression in human A549 cells at 20 uM measured for 1 day bt RT-qPCR analysis. In kind it is functional, cell-based.
For experiment [9], the system named is A549. As to the kind of experiment: Antimigratory activity against TGFbeta-stimulated human A549 cells assessed as inhibition of cell migration measured for 1 day by cell scratch assay. In kind it is functional, cell-based.
Experiment [10] deals with A549. As to the kind of experiment: Antimigratory activity against TGFbeta-stimulated human A549 cells assessed as inhibition of cell migration at 1 uM measured for 1 day by cell scratch assay. Type of experiment: functional, cell-based.

For the compound `Cc1noc(C)c1CSc1nc2ccccc2s1`, the result in the experiment with A549 [1] was inactive.

Take `Cc1noc(C)c1CSc1nc2cc(Cl)c(Cl)cc2[nH]1`: the result in the experiment with A549 [2], with A549 [3], in the experiment with A549 [4], with A549 [5], in the experiment on A549 [7] and in the experiment on A549 [8] was Active. The “inhibition call (active/inactive)” value in experiment [6] was “Active”. In addition, the result in the experiment with A549 [1] was inactive.

Turning to `Cc1noc(C)c1CSc1nc2ccccc2[nH]1`, the result with A549 [2], in the experiment with A549 [4], in the experiment on A549 [5], in the experiment with A549 [7] and in the experiment with A549 [8] was Active. In experiment [6], the “inhibition call (active/inactive)” value was “Active”. Further, in the experiment on A549 [1], the result was inactive.

For `Cc1ccnc(SCc2nc3ccccc3s2)n1`, in experiment [6], the inhibition entry was “Active”. For the same compound, the outcome with A549 [7] was Active. The result with A549 [1] was inactive.

With `COc1ccc(CSc2nc3ccccc3n2-c2ccccc2)cc1`, the result in the experiment on A549 [1] was inactive.

With `N#Cc1ccc(CSc2nc3ccccc3n2-c2ccccc2)cc1`, the outcome in the experiment on A549 [5] was Active. In addition, the result in the experiment with A549 [1] was inactive.

On to `c1ccc(CSc2nc3ccccc3n2-c2ccccc2)cc1`, for which the outcome in the experiment on A549 [1] was inactive.

Turning to `c1ccc(-n2c(SCc3nc4ccccc4s3)nc3ccccc32)cc1`, the outcome in the experiment on A549 [1] was inactive.

As for `c1ccc(-n2c(SCc3ccccn3)nc3ccccc32)cc1`, the result in the experiment with A549 [1] was inactive.

Regarding `Cc1noc(C)c1CSc1nc2ccccc2n1-c1ccccc1`, the outcome in the experiment on A549 [9] and in the experiment with A549 [1] was inactive.

In the case of `Cn1c(SCc2nc3ccccc3s2)nc2ccccc21`, the outcome in the experiment on A549 [1] was inactive.

For `c1ccc2[nH]c(SCc3nc4ccccc4s3)nc2c1`, the result in the experiment with A549 [2], in the experiment with A549 [4], with A549 [10], with A549 [5], in the experiment on A549 [7] and in the experiment with A549 [8] was Active. For the same compound, the “inhibition call (active/inactive)” value in experiment [6] is “Active”. Further, the outcome with A549 [1] was inactive.

Consider `Cc1noc(C)c1CSc1nc2ccccc2n1C`, for which, in the experiment with A549 [1], the outcome was inactive.
